In patent US20200405697A1, “Antitumor Agent” (Taiho Pharmaceutical Co., Ltd, priority 2017, published 2020) one finds IC50 data, which are given here for 19 compounds.

The target of this test is T1, human RNR (histidine tagged human M1 and human M2 proteins) (Homo sapiens, UniProt P23921).
T1 construct: made in house; host or cells: Escherichia coli
T1 sequence (P23921 1-792): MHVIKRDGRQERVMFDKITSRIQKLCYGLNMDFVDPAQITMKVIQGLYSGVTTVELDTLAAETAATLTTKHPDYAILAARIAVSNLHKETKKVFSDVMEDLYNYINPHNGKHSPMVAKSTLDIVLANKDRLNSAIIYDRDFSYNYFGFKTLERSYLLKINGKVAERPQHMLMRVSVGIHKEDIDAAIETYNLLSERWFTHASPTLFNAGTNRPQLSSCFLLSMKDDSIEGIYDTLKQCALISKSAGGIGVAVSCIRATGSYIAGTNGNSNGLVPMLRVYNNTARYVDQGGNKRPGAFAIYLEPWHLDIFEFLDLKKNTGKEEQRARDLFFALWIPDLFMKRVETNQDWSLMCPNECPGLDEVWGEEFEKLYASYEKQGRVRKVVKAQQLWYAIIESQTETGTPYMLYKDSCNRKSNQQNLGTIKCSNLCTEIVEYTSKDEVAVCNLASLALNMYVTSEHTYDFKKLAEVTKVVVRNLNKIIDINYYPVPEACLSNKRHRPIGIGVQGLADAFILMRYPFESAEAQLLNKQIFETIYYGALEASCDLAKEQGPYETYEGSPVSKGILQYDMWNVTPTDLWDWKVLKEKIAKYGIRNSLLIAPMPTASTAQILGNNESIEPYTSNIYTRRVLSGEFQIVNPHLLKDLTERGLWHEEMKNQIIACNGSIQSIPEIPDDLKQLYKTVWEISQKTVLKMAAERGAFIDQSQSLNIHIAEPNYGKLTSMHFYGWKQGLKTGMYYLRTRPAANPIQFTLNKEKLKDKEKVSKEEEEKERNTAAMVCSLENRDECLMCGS
The test is described as follows: Human RNR inhibition effect (dCDP formation from CDP). In kind it is biochemical. The conditions noted are these: 10 μM CDP, 37° C. for 30 minutes, read-out: RNR inhibitory activity IC50. The procedure:
The inhibitory activity against the ribonucleotide reduction reaction (RNR inhibitory activity) of the Example compound was determined by measuring the formation of deoxycytidine diphosphate (hereinafter referred to as dCDP) from cytidine diphosphate (hereinafter referred to as CDP) by the following method.
Human M1 subunit (isoform 1, GenBank accession No: NM_001033), to which a histidine tag is fused at the amino terminus, and human M2 subunit (mutant lacking amino terminal 59 amino acids of isoform 2, GenBank accession No: NM_001034), to which a histidine tag is fused, were overexpressed in Escherichia coli and were solubilized after collection, and histidine tagged human M1 and histidine tagged human M2 proteins were purified on a nickel chelate column. A mixture of the histidine tagged human M1 and histidine tagged human M2 proteins was used as RNR in the ribonucleotide reduction reaction. [to]
First, Example compounds were serially diluted with DMSO. Next, human M1 protein and human M2 protein were added to a 0.02% aqueous albumin solution derived from fetal bovine serum, a DMSO solution of the Example compound or the control DMSO solution (final concentration of DMSO was 1%) was added, and the mixture was allowed to stand for 20 minutes. Thereafter, the reaction buffer [50 mM HEPES buffer (pH 7.2) at the final concentration, 4 mM magnesium acetate at the final concentration, 100 mM potassium chloride at the final concentration, 6 mM dithiothreitol at the final concentration, 2 mM adenosine triphosphate at the final concentration, 0.24 mM nicotinamide adenine dinucleotide phosphate at final concentration] and 10 μM CDP at the final concentration were added and incubated at 37° C. for 30 minutes to perform ribonucleotide reduction reaction. Immediately after the reaction, the reaction was stopped by heating at 100° C. for 15 minutes, followed by centrifugation at 10,000 rpm for 10 minutes. After the centrifugation, a portion (5 μL) of the resulting supernatant was analyzed with a high performance liquid chromatography (Shimadzu Corporation, Prominence) using Shim-pack XR-ODS (manufactured by Shimadzu GLC Co., 3.0×100 mm).

For `Cc1ccc(F)c([C@@H](C)[C@H](NS(=O)(=O)c2cc3c(cc2C(N)=O)OCCO3)c2n[nH]c(=O)o2)c1C` [Example 261, 7-(N-((1S,2R)-2-(6-fluoro-2,3-dimethylphenyl)-1-(5-oxo-4,5-dihydro-1,3,4-oxadiazol-2-yl)propyl)sulfamoyl)-2,3-dihydrobenzo[b][1,4]dioxin-6-carboxamide], the IC50 – broadly, the concentration at which inhibition is half-maximal – worked out at 90 nM. Under `Cc1ccc(F)c([C@@H](C)[C@H](NS(=O)(=O)c2ccc(C(F)(F)F)cc2C(N)=O)c2n[nH]c(=O)o2)c1C` [Example 41, 2-(N-((1S,2R)-2-(6-fluoro-2,3-dimethylphenyl)-1-(5-oxo-4,5-dihydro-1,3,4-oxadiazol-2-yl)propyl)sulfamoyl)-5-(trifluoromethyl)benzamide] stands 100 nM. The value for `Cc1ccc(F)c([C@@H](C)[C@H](NS(=O)(=O)c2ccc(Cl)c(C(=O)N3CCCC3)n2)c2n[nH]c(=O)o2)c1C` [Example 114, 5-chloro-N-((1S,2R)-2-(6-fluoro-2,3-dimethylphenyl)-1-(5-oxo-4,5-dihydro-1,3,4-oxadiazol-2-yl)propyl)-6-(pyrrolidine-1-carbonyl)pyridine-2-sulfonamide] was 60 nM. The value for `CC(=O)OC(C)c1nc(S(=O)(=O)N[C@H](c2n[nH]c(=O)o2)[C@H](C)c2cccc3c2CCC3)ccc1Cl` (stereo partly drawn) [Example 142, 1-(3-chloro-6-(N-((1S,2R)-2-(2,3-dihydro-1H-inden-4-yl)-1-(5-oxo-4,5-dihydro-1,3,4-oxadiazol-2-yl)propyl)sulfamoyl)pyridin-2-yl)ethylacetate] was 210 nM; that for `Cc1c(C2CC2)ccc(F)c1[C@@H](C)[C@H](NS(=O)(=O)c1ccc(Cl)cc1C(N)=O)c1n[nH]c(=O)o1` [Example 26, 5-chloro-2-(N-((1S,2R)-2-(3-cyclopropyl-6-fluoro-2-methylphenyl)-1-(5-oxo-4,5-dihydro-1,3,4-oxadiazol-2-yl)propyl)sulfamoyl)benzamide] was 160 nM. On to `Cc1ccc(F)c([C@@H](C)[C@H](NS(=O)(=O)c2ccc(F)c(S(C)(=O)=O)c2)c2n[nH]c(=O)o2)c1C` [Example 169, 4-fluoro-N-((1S,2R)-2-(6-fluoro-2,3-dimethylphenyl)-1-(5-oxo-4,5-dihydro-1,3,4-oxadiazol-2-yl)propyl)-3-(methylsulfonyl)benzenesulfonamide], for which the IC50 came to 190 nM.

Regarding `Cc1ccc(F)c([C@@H](C)[C@H](NS(=O)(=O)c2ccc(Cl)c3c2OCCN3)c2n[nH]c(=O)o2)c1C` [Example 275, 5-chloro-N-((1S,2R)-2-(6-fluoro-2,3-dimethylphenyl)-1-(5-oxo-4,5-dihydro-1,3,4-oxadiazol-2-yl)propyl)-3,4-dihydro-2H-benzo[b][1,4]oxazine-8-sulfonamide], the IC50 came out at 100 nM. Under `COc1cc(Cl)ccc1S(=O)(=O)N[C@H](c1n[nH]c(=O)o1)[C@H](C)c1c(F)ccc(-c2cnc3c(c2)OCCN3C)c1C` [Example 322, 4-chloro-N-((1S,2R)-2-(6-fluoro-2-methyl-3-(4-methyl-3,4-dihydro-2H-pyrido[3,2-b][1,4]oxazine-7-yl)phenyl)-1-(5-oxo-4,5-dihydro-1,3,4-oxadiazol-2-yl)propyl)-2-methoxybenzenesulfonamide] stands 220 nM; under `C[C@H](c1c(F)ccc2ccccc12)[C@H](NS(=O)(=O)c1ccc(Cl)cc1C(N)=O)c1n[nH]c(=O)o1` [Example 6, 5-chloro-2-(N-((1S,2R)-2-(2-fluoronaphthalen-1-yl)-1-(5-oxo-4,5-dihydro-1,3,4-oxadiazol-2-yl)propyl)sulfamoyl)benzamide], 110 nM; under `Cc1ccc(F)c([C@@H](C)[C@H](NS(=O)(=O)c2ccc(Cl)nc2C(N)=O)c2n[nH]c(=O)o2)c1C` [Example 19, 6-Chloro-3-(N-((1S,2R)-2-(6-fluoro-2,3-dimethylphenyl)-1-(5-oxo-4,5-dihydro-1,3,4-oxadiazol-2-yl)propyl)sulfamoyl)picolinamide], 190 nM.

As for `Cc1ccc(F)c([C@@H](C)[C@H](NS(=O)(=O)c2c(Cl)cc(Cl)cc2C(N)=O)c2n[nH]c(=O)o2)c1C` [Example 256, 3,5-dichloro-2-(N-((1S,2R)-2-(6-fluoro-2,3-dimethylphenyl)-1-(5-oxo-4,5-dihydro-1,3,4-oxadiazol-2-yl)propyl)sulfamoyl)benzamide], the IC50 is 420 nM. The value for `Cc1ccc(F)c([C@@H](C)[C@H](NS(=O)(=O)c2ccccc2C(N)=O)c2n[nH]c(=O)o2)c1C` [Example 20, 2-(N-((1S,2R)-2-(6-fluoro-2,3-dimethylphenyl)-1-(5-oxo-4,5-dihydro-1,3,4-oxadiazol-2-yl)propyl)sulfamoyl)benzamide] was 260 nM. The value for `Cc1ccc(F)c([C@@H](C)[C@H](NS(=O)(=O)c2cccc3c2OCCN3C(=O)C2CC2)c2n[nH]c(=O)o2)c1C` [Example 99, 4-(cyclopropanecarbonyl)-N-((1S,2R)-2-(6-fluoro-2,3-dimethylphenyl)-1-(5-oxo-4,5-dihydro-1,3,4-oxadiazol-2-yl)propyl)-3,4-dihydro-2H-benzo[b][1,4]oxazine-8-sulfonamide] was 290 nM. The value for `COc1cc(Cl)ccc1S(=O)(=O)N[C@H](c1n[nH]c(=O)o1)[C@H](C)c1c(F)ccc(-c2cc[nH]n2)c1C` [Example 301, 4-chloro-N-((1S,2R)-2-(6-fluoro-2-methyl-3-(1H-pyrazol-3-yl)phenyl)-1-(5-oxo-4,5-dihydro-1,3,4-oxadiazol-2-yl)propyl)-2-methoxybenzenesulfonamide] was 290 nM; that for `Cc1ccc(F)c([C@@H](C)[C@H](NS(=O)(=O)c2ccc(Cl)cc2C(=O)NO)c2n[nH]c(=O)o2)c1C` [Example 286, 5-chloro-2-(N-((1S,2R)-2-(6-fluoro-2,3-dimethylphenyl)-1-(5-oxo-4,5-dihydro-1,3,4-oxadiazol-2-yl)propyl)sulfamoyl)-N-hydroxybenzamide] was 70 nM; that for `C[C@H](c1cccc2c1CCC2)[C@H](NS(=O)(=O)c1ccc(Br)cc1F)c1n[nH]c(=O)o1` [Example 60, 4-bromo-N-((1S,2R)-2-(2,3-dihydro-1H-inden-4-yl)-1-(5-oxo-4,5-dihydro-1,3,4-oxadiazol-2-yl)propyl)-2-fluorobenzenesulfonamide] was 990 nM. With `C[C@H](c1c(F)ccc2ccccc12)[C@H](NS(=O)(=O)c1ccc(Br)cc1C(N)=O)c1n[nH]c(=O)o1` [Example 15, 5-bromo-2-(N-((1S,2R)-2-(2-fluoronaphthalen-1-yl)-1-(5-oxo-4,5-dihydro-1,3,4-oxadiazol-2-yl)propyl)sulfamoyl)benzamide], the IC50 was found to be 100 nM.

`C[C@H](c1cccc2c1CCC2)[C@H](NS(=O)(=O)c1ccc(Cl)c(C(C)(C)O)n1)c1n[nH]c(=O)o1` [Example 192, 5-chloro-N-((1S,2R)-2-(2,3-dihydro-1H-inden-4-yl)-1-(5-oxo-4,5-dihydro-1,3,4-oxadiazol-2-yl)propyl)-6-(2-hydroxypropan-2-yl)pyridine-2-sulfonamide]: the concentration for half-maximal inhibition (IC50) was 440 nM. Under `Cc1ccc(F)c([C@@H](C)[C@H](NS(=O)(=O)c2ccc(F)c3c2OCCC3=O)c2n[nH]c(=O)o2)c1C` [Example 159, 5-fluoro-N-((1S,2R)-2-(6-fluoro-2,3-dimethylphenyl)-1-(5-oxo-4,5-dihydro-1,3,4-oxadiazol-2-yl)propyl)-4-oxochroman-8-sulfonamide] stands 160 nM.
